Values belong to the compound of their own block, whether it stands above or below them. Residues, ends and D or L forms follow the SMILES beside them. *: point of attachment. X1 = O=C1c2cccc3c(N4CCCCC4)ccc(c23)C(=O)C1CC(=O)*
Experiments:
[1] = Survival rate of HeLa cells; format: cell-based; conditions: human
From the text: (§1) The above experimental result is much better than a standard of IC50 (50% inhibitory concentration). IC50 represents a concentration of a drug that is required for 50% survival rate of the cells, which means that a certain concentration of a drug is used to detect a cell mortality rate of 50%, and the certain concentration is also referred as 50% inhibitory concentration. Described in different ways, when a ratio of death cells to original cells is 50%, the corresponding concentration is 50% inhibitory concentration. The water-soluble peptide fluorescence material of the present disclosure has low toxicity and excellent compatibility to PC-3 cells, so as to avoid mass mortality of the cells. In addition, HeLa, MCF-7, CTXTAN2, PC12, WSI, 3T3L1 cells are also tested. The water-soluble peptide fluorescence material has excellent compatibility with these cells since the survival rate of these cell are all over 50%.

[2] = Survival rate of PC12 cells; format: cell-based; conditions: rat
From the text: as §1

[3] = Survival rate of 3T3L1 cells; format: cell-based; conditions: mouse
From the text: as §1

[4] = Survival rate of MCF-7 cells; format: cell-based; conditions: human
From the text: as §1

[5] = Survival rate of CTXTAN2 cells; format: cell-based; conditions: rat
From the text: as §1

[6] = Survival rate of PC-3 cells in the fluorescence material; format: cell-based; conditions: human, two days, PC-3 cell
From the text: as §1

[7] = Survival rate of WSI cells; format: cell-based; conditions: human
From the text: as §1

[8] = system: acidic cells in living cells; test: Fluorescence marking of acidic cells in living cells, compared with Lysotracker; format: cell-based; conditions: for fluorescence appearing at the acidic cells: living cells, FIGS. 1A/1B
From the text: The water-soluble peptide fluorescence material is designed to illuminate in acid, neutral or weak base environment, and following embodiments give an example illuminating in acid environment. FIGS. 1A, 1B and 1C are comparative pictures between a water-soluble peptide fluorescence material of the present disclosure and a traditional fluorescence material at the same concentration. The water-soluble peptide fluorescence material has a structure of following formula including a peptide sequence Phe-Asp-Gly-Glu-Ala (SEQ ID NO: 5):
Continuing in FIG. 1B to compare with FIG. 1A, FIG. 1B uses the water-soluble peptide fluorescence material of the present disclosure, which is also used to mark acidic cells in living cells. […] Accordingly, the water-soluble peptide fluorescence material is suitable for a biological fluorescence probe, so as to detect and mark positions of the acidic cells.
At the same concentration, the water-soluble peptide fluorescence material has the greater fluorescence intensity than that of Lysotracker. On this base, a dose of the water-soluble peptide fluorescence material could be decreased to achieve the same fluorescence intensity with the Lysotracker, so as to decrease medical costs and damage to human bodies.

[9] = Fluorescence intensity and emission wavelength at different pH values; format: physicochemical
From the text: In Experimental Examples 210, 220, 230, 240, 250, 260, 270 and 280, the above water-soluble peptide fluorescence material is respectively placed in environments having a pH value of 10, 9, 8, 7, 6, 5, 4 and 3 for testing. In Experimental Examples 210 to 230, the water-soluble peptide fluorescence material is respectively placed in environments having the pH value of 10, 9 and 8.
Continuing in FIG. 5, which illustrates a fluorescence intensity and an emission wavelength of the water-soluble peptide fluorescence material of formula (III-10) at different pH values. In Experimental Examples 510, 520, 530, 540, 550, 560, 570 and 580, the water-soluble peptide fluorescence material of formula (III-10) is respectively placed in environments having a pH value of 10, 9, 8, 7, 6, 5, 4 and 3 for testing. In Experimental Examples 510 to 560, the water-soluble peptide fluorescence material is placed in environments having the pH value of 10 to 5, and two emission peaks are shown in FIG. 5. […] Then, the pH value is further decrease to 4 (Experimental Example 570) and 3 (Experimental Example 580), and only the emission peak at about 400 nm is remained, so the observed fluorescence has a color of purple in Experimental Examples 570 and 580. Therefore, the water-soluble peptide fluorescence material of formula (III-10) is able to detect and mark locations of acidic cells by change of the color.
Continuing in FIG. 7, which illustrates a fluorescence intensity and an emission wavelength of the water-soluble peptide fluorescence material of formula (III-21) at different pH values. In Experimental Examples 710, 720, 730, 740, 750, 760, 770 and 780, the water-soluble peptide fluorescence material of formula (III-21) is respectively placed in environments having a pH value of 10, 9, 8, 7, 6, 5, 4 and 3 for testing. In Experimental Examples 710 to 750, the water-soluble peptide fluorescence material is placed in environments having the pH value of 10 to 6. […] However, the fluorescence intensity of Experimental Examples 780 is decreased when the pH value is decreased from 4 to 3.
Continuing in FIG. 8, which illustrates a fluorescence intensity and an emission wavelength of the water-soluble peptide fluorescence material of formula (III-22) at different pH values. In Experimental Examples 810, 820, 830, 840, 850, 860, 870 and 880, the water-soluble peptide fluorescence material of formula (III-22) is respectively placed in environments having a pH value of 10, 9, 8, 7, 6, 5, 4 and 3 for testing. In Experimental Examples 810 to 850, the water-soluble peptide fluorescence material is respectively placed in environments having the pH value of 10 to 6. […] In addition, the fluorescence intensity of Experimental Example 860 (pH=5) is 90 times of the fluorescence intensity of Experimental Example 810 […], which represents that the water-soluble peptide fluorescence material has obvious light-emitting interval and easily to identify and detect positions of the acidic cells.
FIG. 10 illustrates a fluorescence intensity and an emission wavelength of the water-soluble peptide fluorescence material of formula (III-23) at different pH values. In Experimental Examples 1010, 1020, 1030, 1040, 1050, 1060, 1070 and 1080, the water-soluble peptide fluorescence material of formula (III-23) is respectively placed in environments having a pH value of 10, 9, 8, 7, 6, 5, 4 and 3 for testing. In Experimental Examples 1010 to 1050, the water-soluble peptide fluorescence material is respectively placed in environments having the pH value of 10 to 6. […] The water-soluble peptide fluorescence material not only provides obvious marker, but also achieves the same effect of the fluorescence at a low concentration, and thereby reduces the costs.
FIG. 11 illustrates a fluorescence intensity and an emission wavelength of the water-soluble peptide fluorescence material of formula (III-27) at different pH values. […]

[10] = Fluorescence in co-solvents of glycerol and methanol (aggregation-induced emission); format: physicochemical
From the text: Continuing in FIG. 6, which illustrates a fluorescence intensity and an emission wavelength of the water-soluble peptide fluorescence material of formula (III-14) in co-solvents having different proportions of glycerol and methanol. In Experimental Example 601, 602, 603, 604, 605, 606, 607, 608, 609 and 610, methanol respectively has 0, 10, 20, 30, 40, 50, 60, 70, 80 and 90% of a total volume of the co-solvent. […] Given the above, the fluorescence intensity of the water-soluble peptide fluorescence material of formula (III-14) is increased corresponding to the increase of the volume ratio of methanol, so the water-soluble peptide fluorescence material of formula (III-14) also has a phenomenon of aggregation-induced emission (AIE) in methanol. In addition, the water-soluble peptide fluorescence material of formula (III-14) has the emission wavelength of about 550 nm, so the observed fluorescence has a color of green.

SMILES: C[C@H](NC(=O)[C@H](CCC(=O)O)NC(=O)CNC(=O)[C@H](CC(=O)O)NC(=O)[C@H](Cc1ccccc1)NC(=O)CC1C(=O)c2cccc3c(N4CCCCC4)ccc(c23)C1=O)C(=O)O (stereo partly drawn) (X1-FDGEA-OH)
viability [1]: > 50% | viability [2]: > 50% | viability [3]: > 50% | viability [4]: > 50% | viability [5]: > 50% | viability at 48 h, 500 µM [6]: 80% | viability [7]: > 50% | fluorescence appearing at the acidic cells [8]: green fluorescence | cellular position of fluorescence compared with Lysotracker ([8]; overlapped picture FIG. 1C): substantially the same as Lysotracker | fluorescence intensity compared with Lysotracker ([8]; same concentration, acidic cells in living cells): greater than that of the red fluorescence of Lysotracker | ratio of fluorescence intensity pH 3 to pH 7 ([9]; Experimental Examples 240 and 280): 25.5 times | fluorescence intensity ([9]; pH 3): about 900 fluorescent units | fluorescence intensity ([9]; pH 4): about 500 fluorescent units | color of fluorescence ([9]; pH 5): green | emission peak ([9]; pH 5): about 550 nm | fluorescence intensity ([9]; pH 5): about 350 fluorescent units | fluorescence intensity ([9]; pH 6, compared to pH 10 to 7): no significant change | fluorescence intensity ([9]; pH 7, neutral environment): slightly increased | fluorescence intensity ([9]; pH 10, 9 and 8): low fluorescence intensities

fluorescence intensity with increase of the volume ratio of methanol ([10]; aggregation-induced emission): increased | color of observed fluorescence ([10]; glycerol/methanol co-solvent): green | emission wavelength ([10]; glycerol/methanol co-solvent): about 550 nm | fluorescence intensity ([10]; methanol 90% (Experimental Example 610), methanol 0 to 90% tested): largest fluorescence intensity
SMILES: O=C(CN1C(=O)c2cccc3c(N4CCCCC4)ccc(c23)C1=O)NC(Cc1ccccc1)C(=O)NC(Cc1ccccc1)C(=O)O (stereo not drawn) [III-14]

SMILES: CN(C)CCNC(=O)CCc1ccc2n1[B-](F)(F)[N+]1=C(c3ccc[nH]3)C=CC1=C2 [Lysotracker, reference compound]
fluorescence appearing at the acidic cells [8]: red fluorescence

From patent US10222381B2, “Water-soluble peptide fluorescence material” (NATIONAL CHIAO TUNG UNIVERSITY, priority 2015, dated 2019)
